Patent publication US9661854B2, “Molecules having pesticidal utility, and intermediates, compositions, and processes, related thereto” (Dow AgroSciences LLC, priority 2015, dated 2017)

What was measured:
[1] = tested on: Cabbage Looper (Trichoplusia ni, TRIPNI); test: Bioassay on Cabbage Looper (CL), 128-well diet tray assay; assay type: in vivo; settings: 168 h, 50 μg/cm^2 on artificial diet, second instar larvae, 25° C., five to seven days, average of eight wells, read-out: CL % Control (or Mortality) rating
Experimental: (§1) Example A: Bioassays on Beet Armyworm (Spodoptera exigua, LAPHEG) (“BAW”) and Cabbage Looper (Trichoplusia ni, TRIPNI) (“CL”)
(§2) Certain molecules disclosed in this document were tested against BAW and CL using procedures described in the following examples. In the reporting of the results, the “BAW & CL Rating Table” was used (See Table Section).
Bioassays on CL were conducted using a 128-well diet tray assay. One to five second instar CL larvae were placed in each well (3 mL) of the diet tray that had been previously filled with 1 mL of artificial diet to which 50 μg/cm^2 of the test molecule (dissolved in 50 μL of 90:10 acetone-water mixture) had been applied (to each of eight wells) and then allowed to dry. Trays were covered with a clear self-adhesive cover, vented to allow gas exchange, and held at 25° C., 14:10 light-dark for five to seven days. Percent mortality was recorded for the larvae in each well; activity in the eight wells was then averaged. The results are indicated in the table entitled “Table ABC: Biological Results” (See Table Section).

[2] = tested on: Beet Armyworm (Spodoptera exigua, LAPHEG); test: Bioassay on Beet Armyworm (BAW), 128-well diet tray assay; assay type: in vivo; settings: 168 h, 50 μg/cm^2 on artificial diet, second instar larvae, 25° C., five to seven days, average of eight wells, read-out: BAW % Control (or Mortality) rating
Experimental: as §1, §2
Bioassays on BAW were conducted using a 128-well diet tray assay. One to five second instar BAW larvae were placed in each well (3 mL) of the diet tray that had been previously filled with 1 mL of artificial diet to which 50 μg/cm^2 of the test molecule (dissolved in 50 μL of 90:10 acetone-water mixture) had been applied (to each of eight wells) and then allowed to dry. Trays were covered with a clear self-adhesive cover, vented to allow gas exchange, and held at 25° C., 14:10 light-dark for five to seven days. Percent mortality was recorded for the larvae in each well; activity in the eight wells was then averaged. The results are indicated in the table entitled “Table ABC: Biological Results” (See Table Section).

Compound `Cc1ccc(Cl)c(N2C(=O)CS/C2=N\C(=O)Nc2ccc(/C=C/c3ncn(-c4ccc(OC(F)(F)F)cc4)n3)cc2)c1` [F44, 1-((Z)-3-(2-Chloro-5-methylphenyl)-4-oxothiazolidin-2-ylidene)-3-(4-((E)-2-(1-(4-(trifluoromethoxy)phenyl)-1H-1,2,4-triazol-3-yl)vinyl)phenyl)urea] has a mortality at 50 µg/cm2 [1] of 50 to 100% and a mortality at 50 µg/cm2 [2] of 50 to 100%.

Work on `CCCc1ccc(C)cc1N1C(=O)CS/C1=N\C(=O)Nc1ccc(/C=C/c2ncn(-c3ccc(OC(F)(F)F)cc3)n2)cc1` [F45, 1-((Z)-3-(5-Methyl-2-propylphenyl)-4-oxothiazolidin-2-ylidene)-3-(4-((E)-2-(1-(4-(trifluoromethoxy)phenyl)-1H-1,2,4-triazol-3-yl)vinyl)phenyl)urea] yielded a mortality at 50 µg/cm2 [1] of 50 to 100% and a mortality at 50 µg/cm2 [2] of 50 to 100%.

With `CCOc1ccc(C)cc1N1C(=O)CS/C1=N\C(=O)Nc1ccc(/C=C/c2ncn(-c3ccc(OC(F)(F)F)cc3)n2)cc1` [F46, 1-((Z)-3-(2-Ethoxy-5-methylphenyl)-4-oxothiazolidin-2-ylidene)-3-(4-((E)-2-(1-(4-(trifluoromethoxy)phenyl)-1H-1,2,4-triazol-3-yl)vinyl)phenyl)urea] the mortality at 50 µg/cm2 [1] was 50 to 100% and the mortality at 50 µg/cm2 [2] was 50 to 100%.

Work on `Cc1cc(N2C(=O)CS/C2=N\C(=O)Nc2ccc(/C=C/c3ncn(-c4ccc(OC(F)(F)F)cc4)n3)cc2)c(C(C)C)cc1F` [F47, 1-((Z)-3-(4-Fluoro-2-isopropyl-5-methylphenyl)-4-oxothiazolidin-2-ylidene)-3-(4-((E)-2-(1-(4-(trifluoromethoxy)phenyl)-1H-1,2,4-triazol-3-yl)vinyl)phenyl)urea] yielded a mortality at 50 µg/cm2 [1] of 50 to 100% and a mortality at 50 µg/cm2 [2] of 50 to 100%.

For `CCC(C)Oc1ccc(C)cc1N1C(=O)CS/C1=N\C(=O)Nc1ccc(/C=C/c2ncn(-c3ccc(OC(F)(F)F)cc3)n2)cc1` (stereo not shown) [F48, 1-((Z)-3-(2-(sec-Butoxy)-5-methylphenyl)-4-oxothiazolidin-2-ylidene)-3-(4-((E)-2-(1-(4-(trifluoromethoxy)phenyl)-1H-1,2,4-triazol-3-yl)vinyl)phenyl)urea], the mortality at 50 µg/cm2 [1] was 50 to 100% and the mortality at 50 µg/cm2 [2] was 50 to 100%.

With `Cc1ccc(OC(C)C)c(N2C(=O)CS/C2=N\C(=O)Nc2ccc(/C=C/c3ncn(-c4ccc(OC(F)(F)F)cc4)n3)cc2)c1` [F49, 1-((Z)-3-(2-Isopropoxy-5-methylphenyl)-4-oxothiazolidin-2-ylidene)-3-(4-((E)-2-(1-(4-(trifluoromethoxy)phenyl)-1H-1,2,4-triazol-3-yl)vinyl)phenyl)urea] the mortality at 50 µg/cm2 [1] was 50 to 100% and the mortality at 50 µg/cm2 [2] was 50 to 100%.

With `Cc1ccc(OC(F)(F)F)c(N2C(=O)CS/C2=N\C(=O)Nc2ccc(/C=C/c3ncn(-c4ccc(OC(F)(F)F)cc4)n3)cc2)c1` [F50, 1-((Z)-3-(5-Methyl-2-(trifluoromethoxy)phenyl)-4-oxothiazolidin-2-ylidene)-3-(4-((E)-2-(1-(4-(trifluoromethoxy)phenyl)-1H-1,2,4-triazol-3-yl)vinyl)phenyl)urea] the mortality at 50 µg/cm2 [1] was 50 to 100% and the mortality at 50 µg/cm2 [2] was 50 to 100%.

With `Cc1ccc(OCC(F)(F)F)c(N2C(=O)CS/C2=N\C(=O)Nc2ccc(/C=C/c3ncn(-c4ccc(OC(F)(F)F)cc4)n3)cc2)c1` [F51, 1-((Z)-3-(5-Methyl-2-(2,2,2-trifluoroethoxy)phenyl)-4-oxothiazolidin-2-ylidene)-3-(4-((E)-2-(1-(4-(trifluoromethoxy)phenyl)-1H-1,2,4-triazol-3-yl)vinyl)phenyl)urea] the mortality at 50 µg/cm2 [1] was 50 to 100% and the mortality at 50 µg/cm2 [2] was 50 to 100%.

Work on `Cc1ccc(OC(C)(C)C)c(N2C(=O)CS/C2=N\C(=O)Nc2ccc(/C=C/c3ncn(-c4ccc(OC(F)(F)F)cc4)n3)cc2)c1` [F52, 1-((Z)-3-(2-(tert-Butoxy)-5-methylphenyl)-4-oxothiazolidin-2-ylidene)-3-(4-((E)-2-(1-(4-(trifluoromethoxy)phenyl)-1H-1,2,4-triazol-3-yl)vinyl)phenyl)urea] yielded a mortality at 50 µg/cm2 [1] of 50 to 100% and a mortality at 50 µg/cm2 [2] of 50 to 100%.

`COCc1ccc(C)cc1N1C(=O)CS/C1=N\C(=O)Nc1ccc(/C=C/c2ncn(-c3ccc(OC(F)(F)F)cc3)n2)cc1` [F53, 1-((Z)-3-(2-(Methoxymethyl)-5-methylphenyl)-4-oxothiazolidin-2-ylidene)-3-(4-((E)-2-(1-(4-(trifluoromethoxy)phenyl)-1H-1,2,4-triazol-3-yl)vinyl)phenyl)urea] showed a mortality at 50 µg/cm2 [1] of 50 to 100% and a mortality at 50 µg/cm2 [2] of 50 to 100%.

`COC(=O)c1cc(/C=C/c2ncn(-c3ccc(OC(F)(F)F)cc3)n2)ccc1NC(=O)/N=C1\SCC(=O)N1c1cc(C)ccc1C(C)C` [F54, Methyl 2-(3-((Z)-3-(2-isopropyl-5-methylphenyl)-4-oxothiazolidin-2-ylidene)ureido)-5-((E)-2-(1-(4-(trifluoromethoxy)phenyl)-1H-1,2,4-triazol-3-yl)vinyl)benzoate] gave a mortality at 50 µg/cm2 [1] of 50 to 100% and a mortality at 50 µg/cm2 [2] of 50 to 100%.

In the case of `Cc1ccc(C(C)C)c(N2C(=O)CS/C2=N\C(=O)Nc2ccc(/C=C/c3ncn(-c4ccc(OC(F)(F)F)cc4)n3)cc2F)c1` [F55, 1-(2-Fluoro-4-((E)-2-(1-(4-(trifluoromethoxy)phenyl)-1H-1,2,4-triazol-3-yl)vinyl)phenyl)-3-((Z)-3-(2-isopropyl-5-methylphenyl)-4-oxothiazolidin-2-ylidene)urea], the mortality at 50 µg/cm2 [1] is reported as 50 to 100% and the mortality at 50 µg/cm2 [2] is reported as 50 to 100%.

Work on `Cc1ccc(C(C)C)c(N2C(=O)CS/C2=N\C(=O)Nc2ccc(/C=C/c3ncn(-c4ccc(OC(F)(F)F)cc4)n3)cc2Cl)c1` [F56, 1-(2-chloro-4-((E)-2-(1-(4-(trifluoromethoxy)phenyl)-1H-1,2,4-triazol-3-yl)vinyl)phenyl)-3-((Z)-3-(2-isopropyl-5-methylphenyl)-4-oxothiazolidin-2-ylidene)urea] yielded a mortality at 50 µg/cm2 [1] of 50 to 100% and a mortality at 50 µg/cm2 [2] of 50 to 100%.

Compound `Cc1ccc(C(C)C)c(N2C(=O)CS/C2=N\C(=O)Nc2c(F)cc(/C=C/c3ncn(-c4ccc(OC(F)(F)F)cc4)n3)cc2F)c1` [F57, 1-(2,6-difluoro-4-((E)-2-(1-(4-(trifluoromethoxy)phenyl)-1H-1,2,4-triazol-3-yl)vinyl)phenyl)-3-((Z)-3-(2-isopropyl-5-methylphenyl)-4-oxothiazolidin-2-ylidene)urea] has a mortality at 50 µg/cm2 [1] of 50 to 100% and a mortality at 50 µg/cm2 [2] of 50 to 100%.

`COc1cc(/C=C/c2ncn(-c3ccc(OC(F)(F)F)cc3)n2)ccc1NC(=O)/N=C1\SCC(=O)N1c1cc(C)ccc1C(C)C` [F58, 1-((Z)-3-(2-isopropyl-5-methylphenyl)-4-oxothiazolidin-2-ylidene)-3-(2-methoxy-4-((E)-2-(1-(4-(trifluoromethoxy)phenyl)-1H-1,2,4-triazol-3-yl)vinyl)phenyl)urea] showed a mortality at 50 µg/cm2 [1] of 50 to 100% and a mortality at 50 µg/cm2 [2] of 50 to 100%.

For `COCc1ccc(C)cc1N1C(=O)CS/C1=N\C(=O)Nc1ccc(/C=C/c2ncn(-c3ccc(OC(F)(F)F)cc3)n2)cc1F` [F59, 1-(2-Fluoro-4-((E)-2-(1-(4-(trifluoromethoxy)phenyl)-1H-1,2,4-triazol-3-yl)vinyl)phenyl)-3-((Z)-3-(2-(methoxymethyl)-5-methylphenyl)-4-oxothiazolidin-2-ylidene)urea], the mortality at 50 µg/cm2 [1] was 50 to 100% and the mortality at 50 µg/cm2 [2] was 50 to 100%.

`Cc1ccc(C(C)C)c(N2C(=O)CS/C2=N\C(=O)Nc2ccc(/C=C/c3ncn(-c4ccc(OC(F)(F)F)cc4)n3)c(F)c2)c1` [F61, 1-(3-fluoro-4-((E)-2-(1-(4-(trifluoromethoxy)phenyl)-1H-1,2,4-triazol-3-yl)vinyl)phenyl)-3-((Z)-3-(2-isopropyl-5-methylphenyl)-4-oxothiazolidin-2-ylidene)urea] gave a mortality at 50 µg/cm2 [1] of 50 to 100% and a mortality at 50 µg/cm2 [2] of 50 to 100%.
